Literature values as cited in patent US6436949B1, “Heterocyclically substituted benzamides and their use” (Abbott Laboratories, priority 1996, dated 2002).

What was measured:
calpain [1] = conditions: activated platelets; J. Biol. Chem., 1993, Vol 268, 12603-12608
calpain [2] = conditions: J.Med.Chem. 1990,33, 11-13

In the case of `CCCC[C@@H](C=O)NC(=O)[C@H](CC(C)C)NC(=O)OCc1ccccc1` [calpeptin], the “cleavage of pp60src” value (calpain [1]) is given as “can be prevented”.
In the case of Ph—CONH—CH(CH2Ph)—CO—COCOOCH3, the inhibition of calpain (calpain [2]) is given as “weak inhibitor of calpain”.
